Molecular target: glutaminyl cyclase (QC) (Homo sapiens, UniProt Q16769)
Assay: QC inhibitor assay (fluorometric / spectrophotometric QC activity assays with inhibitor added)
Assay type: biochemical
Conditions: QC inhibition, 30° C.; for Ki: fit to competitive inhibition
Method: All measurements were performed with a BioAssay Reader HTS-7000Plus for microplates (Perkin Elmer) at 30° C. QC activity was evaluated fluorometrically using […]. The samples consisted of 0.2 mM fluorogenic substrate, 0.25 U pyroglutamyl aminopeptidase (Unizyme, Horsholm, Denmark) in 0.2 M Tris/HCl, pH 8.0 containing 20 mM EDTA and an appropriately diluted aliquot of QC in a final volume of 250 μl. Excitation/emission wavelengths were 320/410 nm. The assay reactions were initiated by addition of glutaminyl cyclase. QC activity was determined from a standard curve of β-naphthylamine under assay conditions. One unit is defined as the amount of QC catalyzing the formation of 1 μmol pGlu-βNA from H-Gln-βNA per minute under the described conditions.
In a second fluorometric assay, QC was activity determined using H-Gln-AMC as substrate. Reactions were carried out at 30° C. utilizing the NOVOStar reader for microplates (BMG labtechnologies). The samples consisted of varying concentrations of the fluorogenic substrate, 0.1 U pyroglutamyl aminopeptidase (Qiagen) in 0.05 M Tris/HCl, pH 8.0 containing 5 mM EDTA and an appropriately diluted aliquot of QC in a final volume of 250 μl. Excitation/emission wavelengths were 380/460 nm. The assay reactions were initiated by addition of glutaminyl cyclase. QC activity was determined from a standard curve of 7-amino-4-methylcoumarin under assay conditions. The kinetic data were evaluated using GraFit software.
This novel assay was used to determine the kinetic parameters for most of the QC substrates. […] Samples consisted of the respective QC substrate, 0.3 mM NADH, 14 mM α-Ketoglutaric acid and 30 U/ml glutamate dehydrogenase in a final volume of 250 μl. Reactions were started by addition of QC and persued by monitoring of the decrease in absorbance at 340 nm for 8-15 min.
The initial velocities were evaluated and the enzymatic activity was determined from a standard curve of ammonia under assay conditions. All samples were measured at 30° C., using either the […]luor Plus or the Sunrise (both from TECAN) reader for microplates. Kinetic data was evaluated using GraFit software.
For inhibitor testing, the sample composition was the same as described above, except of the putative inhibitory compound added. For a rapid test of QC-inhibition, samples contained 4 mM of the respective inhibitor and a substrate concentration at 1 KM. For detailed investigations of the inhibition and determination of Ki-values, influence of the inhibitor on the auxiliary enzymes was investigated first. […] The inhibitory constant was evaluated by fitting the set of progress curves to the general equation for competitive inhibition using GraFit software.

Sequence of glutaminyl cyclase (QC) (Q16769 29-361): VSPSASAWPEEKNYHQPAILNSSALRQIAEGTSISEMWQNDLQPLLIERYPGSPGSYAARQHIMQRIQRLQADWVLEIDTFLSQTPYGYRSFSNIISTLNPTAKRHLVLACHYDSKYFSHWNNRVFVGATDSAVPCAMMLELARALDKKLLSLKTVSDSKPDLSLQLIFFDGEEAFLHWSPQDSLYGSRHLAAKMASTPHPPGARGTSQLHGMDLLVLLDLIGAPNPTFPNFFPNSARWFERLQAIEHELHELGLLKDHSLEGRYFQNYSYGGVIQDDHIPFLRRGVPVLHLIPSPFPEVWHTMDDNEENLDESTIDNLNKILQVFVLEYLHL

In the case of `CCCCc1cccn2cncc12` [Example 1, 8-butylH-imidazo[1,5-a]pyridine], the IC50 is reported as 13.2 µM and the Ki is reported as 3.7 µM.

With `c1ccc(Cc2cccn3cncc23)cc1` [Example 2, 8-benzylH-imidazo[1,5-a]pyridine] the IC50 was 18.9 µM and the Ki was 5.5 µM.

With `CC(C)Cc1cccn2cncc12` [Example 3, 8-isobutylH-imidazo[1,5-a]pyridine] the IC50 was 20 µM and the Ki was 3.7 µM.

Molecule `c1ccc(-c2cccn3cncc23)cc1` [Example 4, 8-phenylH-imidazo[1,5-a]pyridine] has an IC50 of 8.22 µM and a Ki of 1.3 µM.

Work on `Fc1ccccc1-c1cccn2cncc12` [Example 5, 8-(2-fluorophenyl)H-imidazo[1,5-a]pyridine] yielded an IC50 of 20.6 µM and a Ki of 3.14 µM.

For `Fc1cccc(-c2cccn3cncc23)c1` [Example 6, 8-(3-fluorophenyl)H-imidazo[1,5-a]pyridine], the IC50 was 9.71 µM and the Ki was 2.02 µM.

Work on `Fc1ccc(-c2cccn3cncc23)cc1` [Example 7, 8-(4-fluorophenyl)H-imidazo[1,5-a]pyridine] yielded an IC50 of 10.6 µM and a Ki of 1.87 µM.

In the case of `Clc1ccccc1-c1cccn2cncc12` [Example 8, 8-(2-chlorophenyl)H-imidazo[1,5-a]pyridine], the IC50 is reported as 47.7 µM and the Ki is reported as 15.2 µM.

Work on `Clc1cccc(-c2cccn3cncc23)c1` [Example 9, 8-(3-chlorophenyl)H-imidazo[1,5-a]pyridine] yielded an IC50 of 17.2 µM and a Ki of 2.25 µM.

Work on `Clc1ccc(-c2cccn3cncc23)cc1` [Example 10, 8-(4-chlorophenyl)H-imidazo[1,5-a]pyridine] yielded an IC50 of 5.51 µM and a Ki of 1.11 µM.

For `COc1ccccc1-c1cccn2cncc12` [Example 12, 8-(2-methoxyphenyl)H-imidazo[1,5-a]pyridine], the IC50 was 13.6 µM and the Ki was 3.98 µM.

Work on `COc1cccc(-c2cccn3cncc23)c1` [Example 13, 8-(3-methoxyphenyl)H-imidazo[1,5-a]pyridine] yielded an IC50 of 6.19 µM and a Ki of 1.1 µM.

`c1ccc(COc2ccccc2-c2cccn3cncc23)cc1` [Example 15, 8-(2-(benzyloxy)phenyl)H-imidazo[1,5-a]pyridine] showed an IC50 of 23.6 µM and a Ki of 5.38 µM.

`c1ccc(COc2cccc(-c3cccn4cncc34)c2)cc1` [Example 16, 8-(3-(benzyloxy)phenyl)H-imidazo[1,5-a]pyridine] gave an IC50 of 7.81 µM and a Ki of 1.48 µM.

Molecule `c1ccc(COc2ccc(-c3cccn4cncc34)cc2)cc1` [Example 17, 8-(4-(benzyloxy)phenyl)H-imidazo[1,5-a]pyridine] has an IC50 of 4.36 µM and a Ki of 0.75 µM.

`c1ccc(-c2ccccc2-c2cccn3cncc23)cc1` [Example 18, 8-(biphen-2-yl)H-imidazo[1,5-a]pyridine] gave an IC50 of 36.5 µM and a Ki of 11 µM.

`c1ccc(-c2cccc(-c3cccn4cncc34)c2)cc1` [Example 19, 8-(biphen-3-yl)H-imidazo[1,5-a]pyridine] gave an IC50 of 10.9 µM and a Ki of 2.51 µM.

`c1ccc(-c2ccc(-c3cccn4cncc34)cc2)cc1` [Example 20, 8-(biphen-4-yl)H-imidazo[1,5-a]pyridine] was tested, and the IC50 was 20.6 µM and the Ki was 2.13 µM.

With `FC(F)(F)Oc1ccccc1-c1cccn2cncc12` [Example 21, 8-(2-(trifluoromethoxy)phenyl)H-imidazo[1,5-a]pyridine] the IC50 was 36.5 µM and the Ki was 14.5 µM.

`CCOc1ccc(-c2cccn3cncc23)cc1` [Example 22, 8-(4-ethoxyphenyl)H-imidazo[1,5-a]pyridine] gave an IC50 of 14.3 µM and a Ki of 1.89 µM.

Molecule `c1cc(-c2ccc3c(c2)OCO3)c2cncn2c1` [Example 23, 8-(benzo[d][1,3]dioxol-6-yl)H-imidazo[1,5-a]pyridine] has an IC50 of 29.2 µM and a Ki of 3.46 µM.

Work on `COc1ccc(-c2cccn3cncc23)cc1C` [Example 24, 8-(4-methoxy-3-methylphenyl)H-imidazo[1,5-a]pyridine] yielded an IC50 of 26.4 µM and a Ki of 2.66 µM.

`c1cc(-c2ccc3c(c2)OCCO3)c2cncn2c1` [Example 25, 8-(2,3-dihydrobenzo[b][1,4]dioxin-7-yl)H-imidazo[1,5-a]pyridine] gave an IC50 of 9.17 µM and a Ki of 1.19 µM.

Work on `COc1ccc(-c2cccn3cncc23)cc1OC` [Example 26, 8-(3,4-dimethoxyphenyl)H-imidazo[1,5-a]pyridine] yielded an IC50 of 15.4 µM and a Ki of 9.38 µM.

`COc1c(C)cc(-c2cccn3cncc23)cc1C` [Example 27, 8-(4-methoxy-3,5-dimethylphenyl)H-imidazo[1,5-a]pyridine] showed an IC50 of 27.4 µM and a Ki of 4.92 µM.
